Here are results for eight compounds from paper PMC8667925, “New 1,2,4-oxadiazole derivatives with positive mGlu4 receptor modulation activity and antipsychotic-like properties” (Journal of Enzyme Inhibition and Medicinal Chemistry, 2021).

Entries after “also recorded” stand apart in the source; their conditions may differ. Like-named read-outs stand apart in the source and are kept apart here. Marks after values point to notes of the source that are not given here.

The target in data set [1] is mGlu4 receptor. The note with it: cited from earlier work.
Another data set relates to DOI-induced HTR. The arrangement: method as in PMID 24947466. Particulars: medium dose of 3, 10 and 30 mg/kg; cited from earlier work.
For data set [2], the system named is untransfected cells of the T-REx 293 line. In words: forskolin-induced cAMP accumulation in untransfected (mock) cells, control experiment. Type of data set: cell-based. The note with it: untransfected T-REx 293 cells. On the procedure: 2. In vitro mGlu receptor selectivity profile
Figure S1. Activity of compounds 34, 37, 49, 52, 60 and 62 in forskolin -induced cAMP accumulation in untransfected cells of the T-REx 293 line. Similar to reference mGlu4 receptor […]
cAMP assay in the mock T-REx 293 cell line. […]
receptor used as reference drug) tested at a concentration of 10 μM in NAM mode (in the presence of EC80 concentration of L-Glu (30 μM)) by the cAMP accumulation assay in cells expressing mGlu4 receptor. […]

Data set [3] addresses T1, mGlu4 receptor (Homo sapiens, UniProt Q14833).
T1 construct: mGlu4 receptor NM_000841, mGlu7 receptor NM_000844.2, and mGlu8 receptor NM_000845; expressed in transfected cells; host or cells: T-REx 293
The experiment in a line: forskolin-stimulated cAMP assay, PAM mode (EC20 of L-Glu), T-REx 293 cells. Type of data set: cell-based. The note with it: SEM where given; for EC50 / Emax: PAM mode; for EC50: EC20 (3 µM) L-Glu, T-REx 293 cells expressing human mGlu4 receptor; for Emax: T-REx-293, human mGlu4, read-out: GluMax; for Fold shift of L-Glu dose-response curve: in the presence of 10 µM of compound. The procedure: The activity of the compounds was assessed in vitro in a forskolin-stimulated cAMP assay in T-REx 293 cells expressing human mGlu4 receptors in the presence of an EC20 concentration of L-Glu; a PAM was identified if it potentiated cAMP inhibition by the Gi/o-dependent pathway of mGlu4 receptor activation; i.e. if it was able to produce a leftward shift in the potency of the endogenous agonist.
(§1) Determination of the intracellular cAMP through a homogeneous time-resolved fluorescence (HTRF) cAMP dynamic 2 kit from Cisbio (Codolet, France) was described previously by Chruścicka et al.[91]. Briefly, cells were grown in DMEM supplemented with 10% foetal bovine serum (FBS) (tetracycline free). Forty-eight hours before the experiments, mGlu receptor expression was induced by the addition of 0.75 µg/mL tetracycline. Twenty hours before the experiment, FBS and L-Glu were removed from the medium. Thereafter, the cells were scraped and centrifuged. A cell pellet was suspended in Hanks-HEPES (130 mM NaCl, 5.4 mM KCl, 1.8 mM CaCl2, 0.8 mM MgSO4, 0.9 mM NaH2PO4, 20 mM HEPES, and 3.25 mM glucose; pH 7.4). Then, the cell suspension was incubated in the presence of 10 µM forskolin (or 3 µM forskolin for mGlu7 receptor), the agonist L-glutamate and a compound for 5 min. Next, 10 µl of the cell suspension was mixed with 5 µl of cAMP-d2 conjugate and 5 µL of anti-cAMP cryptate conjugate. After 1 h of incubation at rt, the fluorescence at 620 nm and 665 nm was read (Tecan Infinite M1000). The results were calculated as the 665 nm/620 nm ratio multiplied by 10^4. Each sample was prepared in triplicate.
Statistical calculations were performed using GraphPad Prism 5.04 software (GraphPad Software, La Jolla, CA, USA). The curves were fitted to a 3-parametric logistic equation, allowing for the determination of EC50 values. Each data point was analysed in triplicate.

The target of data set [4] is T1, mGlu4 receptor. In words: forskolin-induced cAMP assay, agonist mode, T-REx 293 cells. It is filed as cell-based. On the procedure:
(§2) The compounds were tested in the agonist, PAM (in the presence of EC20 concentration of L-Glu) or NAM (with EC80 of L-Glu) modes of forskolin-induced cAMP using T-REx 293 cells expressing the protein of a given receptor.
as §1

For the next data set, the target named is T2, mGlu7 receptor (Homo sapiens, UniProt Q14831).
T2 construct: mGlu4 receptor NM_000841, mGlu7 receptor NM_000844.2, and mGlu8 receptor NM_000845; expressed in transfected cells; host or cells: T-REx 293
T2 sequence (Q14831 35-915): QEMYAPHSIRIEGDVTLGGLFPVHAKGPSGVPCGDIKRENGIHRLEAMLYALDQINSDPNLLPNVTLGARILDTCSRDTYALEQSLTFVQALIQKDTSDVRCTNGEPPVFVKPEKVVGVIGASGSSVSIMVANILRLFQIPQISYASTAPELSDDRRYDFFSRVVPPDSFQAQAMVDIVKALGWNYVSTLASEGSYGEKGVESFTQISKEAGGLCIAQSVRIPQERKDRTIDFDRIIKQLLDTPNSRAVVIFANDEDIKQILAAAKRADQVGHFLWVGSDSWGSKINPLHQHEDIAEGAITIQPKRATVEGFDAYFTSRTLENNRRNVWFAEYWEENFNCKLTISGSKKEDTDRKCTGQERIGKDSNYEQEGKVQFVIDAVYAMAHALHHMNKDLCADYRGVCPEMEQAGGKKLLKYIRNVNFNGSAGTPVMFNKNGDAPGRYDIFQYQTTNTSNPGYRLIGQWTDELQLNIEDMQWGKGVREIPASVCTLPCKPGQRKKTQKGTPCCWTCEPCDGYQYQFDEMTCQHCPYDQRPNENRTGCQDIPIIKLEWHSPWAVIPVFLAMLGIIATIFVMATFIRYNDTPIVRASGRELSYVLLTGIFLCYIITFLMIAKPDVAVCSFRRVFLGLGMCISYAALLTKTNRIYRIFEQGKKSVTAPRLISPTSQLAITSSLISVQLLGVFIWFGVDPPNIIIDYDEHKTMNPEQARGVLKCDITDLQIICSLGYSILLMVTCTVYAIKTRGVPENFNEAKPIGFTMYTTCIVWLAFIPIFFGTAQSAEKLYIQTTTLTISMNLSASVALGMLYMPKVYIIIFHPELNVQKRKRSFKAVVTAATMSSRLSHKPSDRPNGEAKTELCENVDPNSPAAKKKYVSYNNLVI
The experiment in a line: cAMP accumulation assay in cells expressing mGlu7 receptor (agonist, PAM, NAM modes). Type of data set: cell-based. The note with it: 10 µM, agonist mode. The procedure: as §2
(§3) Figure 4. The activity of compounds 34, 37, 49, 52, 60, 62 and reference drugs MMPIP (a selective NAM of mGlu7 receptor) and AZ12216052 (a PAM of mGlu8 receptor) tested at a concentration of 10 μM in the cAMP accumulation assay in cells expressing mGlu7 and mGlu8 receptors. The percent activity refers to two extreme FRET signals: 0% corresponds to forskolin treatment alone and 100% to maximal FRET signal for the control cells (without any treatment). A/D – agonistic activity; B/E – PAM activity measured in the presence of L-Glu at the EC20 concentration (0.1 mM for mGlu7 receptor, and 1 μM for mGlu8 receptor); C/F – NAM activity measured in the presence of L-Glu at the EC80 concentration (1 mM for mGlu7 receptor, 10 μM for Glu8 receptor).
as §1

In another data set the target is T3, mGlu8 receptor (Homo sapiens, UniProt O00222).
T3 construct: mGlu4 receptor NM_000841, mGlu7 receptor NM_000844.2, and mGlu8 receptor NM_000845; expressed in transfected cells; host or cells: T-REx 293
T3 sequence (O00222 34-908): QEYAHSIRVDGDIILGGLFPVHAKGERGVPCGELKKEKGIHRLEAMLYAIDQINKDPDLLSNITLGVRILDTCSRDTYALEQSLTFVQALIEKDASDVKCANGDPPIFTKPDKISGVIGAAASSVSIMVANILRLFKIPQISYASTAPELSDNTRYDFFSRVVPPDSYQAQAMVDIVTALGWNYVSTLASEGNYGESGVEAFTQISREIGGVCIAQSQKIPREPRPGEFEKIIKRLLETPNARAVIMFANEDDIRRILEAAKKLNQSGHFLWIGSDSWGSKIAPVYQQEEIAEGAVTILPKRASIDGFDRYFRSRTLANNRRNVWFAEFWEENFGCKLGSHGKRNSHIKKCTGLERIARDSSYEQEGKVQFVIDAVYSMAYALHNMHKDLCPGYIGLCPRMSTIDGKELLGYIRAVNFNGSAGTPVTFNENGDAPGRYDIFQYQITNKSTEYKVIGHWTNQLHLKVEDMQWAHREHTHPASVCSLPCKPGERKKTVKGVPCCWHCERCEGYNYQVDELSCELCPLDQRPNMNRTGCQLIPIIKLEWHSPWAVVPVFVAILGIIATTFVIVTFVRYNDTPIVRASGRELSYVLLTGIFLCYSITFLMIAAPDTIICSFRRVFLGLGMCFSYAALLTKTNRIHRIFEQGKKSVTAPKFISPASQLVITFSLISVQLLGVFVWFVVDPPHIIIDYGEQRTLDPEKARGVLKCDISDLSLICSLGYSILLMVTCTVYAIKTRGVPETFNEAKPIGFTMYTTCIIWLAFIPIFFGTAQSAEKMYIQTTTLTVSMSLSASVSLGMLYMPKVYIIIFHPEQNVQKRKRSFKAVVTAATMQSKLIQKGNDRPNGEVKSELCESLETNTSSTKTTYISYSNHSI
The experiment in a line: cAMP accumulation assay in cells expressing mGlu8 receptor (agonist, PAM, NAM modes). It is filed as cell-based. The note with it: 10 µM, agonist mode. On the procedure:
as §2, §3, §1

Data set [5] relates to Salmonella typhimurium strains TA98 and TA100. It is filed as cell-based. Particulars: TA98 and TA100, with and without S9, ≤ 30 µM. The procedure:
The primary assessment of the cardiotoxic risk and mutagenic potential of the six selected 1,2,4-oxadiazole derivatives was performed in the hERG channel assay and the mini-AMES test, respectively. The mutagenicity potential was determined in strains TA98 (frameshift mutation) and TA100 (base-pair substitution) of Salmonella typhimurium in the presence and absence of an exogenous metabolic activation system (rat liver S9 fraction) containing mammalian microsomal enzymes.
The Ames microplate fluctuation protocol (MPF) assay was performed with Salmonella typhimurium strains TA98 and TA100, […]. The bacterial strain as well as the exposure and indicator medium were obtained from Xenometrix AG (Allschwil, Switzerland). […] After the addition of indicator medium, each well of the 24-well plate was aliquoted into 48 wells of a 384-well plate.
The occurrence of reversion events to histidine prototrophy was observed as the growth of bacteria in the indicator medium without histidine after 72 h of incubation at 37 °C. Bacterial growth in 384-well plates was visualised by a colour change of medium from violet to yellow due to the addition of pH indicator dye. The absorbance was measured with a microplate reader (EnSpire) at 420 nm. The reference mutagen NQNO (0.5 mM) was used as a positive control in the experiments. The medium control baseline (MCB) was calculated, as derived from the mean number of revertants in the medium control plus one standard deviation.
AMES test was conducted with two Salmonella typhimurium strains TA98 and TA100 in the presence or absence of liver homogenate S9 to simulate the metabolic conversions of tested compounds with liver enzymes. The AMES MPF 98/100 assay from Xenometrix was performed as described by the supplier. Data were analysed with the AMES MPF calculation […]
(also on this page, place not known: TA10 cal culation TA98 - S9 Revertants TA98 + S9 Revertants - S9 Revertants TA100 + S9 Revertants TA98 - S9 Revertants TA98 + S9 Revertants TA100 - S9 Revertants 0 TA100 + S9 Revertants)

For data set [6], the system named is Albino Swiss mice. In words: modified stress-induced hyperthermia (SIH) in singly housed mice. Type of data set: in vivo. Particulars: over the doses 5, 10 and 20 mg/kg i.p. On the procedure:
(§4) The compounds were dissolved in a small amount of 100% EtOH and then adjusted with 20% cyclodextrin, and the pH was adjusted to 6.0. The investigated compounds were administered intraperitoneally (i.p.) 60 min before the behavioural test. Control drugs i.e. diazepam, clozapine and imipramine (Sigma–Aldrich, St. Louis, USA), were administered i.p. 60 min before the behavioural test. Cyclodextrin (20%) was used as a vehicle. All solutions were prepared immediately prior to the experiments and were administered at a constant volume of 10 ml/kg.
The procedure for modified stress-induced hyperthermia was adapted from Van der Heyden[93] and based on the procedure introduced by Borsini[94]. Each experimental group consisted of eight to ten animals. The animals were housed individually in a 26 × 21 × 14 cm Macolon cage 24 h before testing. For this assay, the body temperature was measured for each mouse at t = 0 min (T1) and t = +15 min (T2). Albino Swiss mice were placed into a new cage immediately following T1, with the difference in temperature (T2−T1) used as the measure of stress-induced hyperthermia. […] A comparison between T1 in vehicle-treated mice and those administered the test compound was used to determine whether the agent affects body temperature alone. Diazepam (5 mg/kg) was used as the positive control. The rectal temperature was measured to the nearest 0.1 °C with a Physitemp Theralert thermometer, TH-5, Clifton NJ, USA, with the temperature sensor for mice, Type T, Copper-Constantan Thermocouple, Braintree Scientific Inc. The lubricated thermistor probe (2 mm diameter) was inserted 20 mm into the rectum. The mouse was held at the base of the tail during this determination, and the thermistor probe was left in place until a constant reading was obtained for 15 s. The effects of the investigated compounds on the SIH response were investigated after administration of the compounds at doses of 5, 10 and 20 mg/kg.

For data set [7], the system named is Albino Swiss mice. The experiment in a line: DOI-induced head twitch test (HTR). It is filed as in vivo. Particulars: over the doses 2.5, 5 and 10 mg/kg i.p.; DOI 2.5 mg/kg i.p. On the procedure: as §4
The experiments were performed according to the procedure described in our previous studies[75]^,[80]. Briefly, to habituate mice to the experimental environment, each animal was transferred to a 12 cm (diameter) × 20 cm (height) glass cage lined with sawdust 30 min before treatment. Test compounds were administered intraperitoneally (i.p.) at doses of 2.5, 5, and 10 mg/kg body weight 60 min before the test was performed. The head twitch response (HTR) in mice was induced by DOI (2.5 mg/kg, i.p.). Immediately after treatment, the number of head twitches was counted during a 20 min session. Haloperidol and clozapine were used as the reference compounds at active doses of 0.2 and 5 mg/kg, respectively.

T1 sequence (Q14833 33-912): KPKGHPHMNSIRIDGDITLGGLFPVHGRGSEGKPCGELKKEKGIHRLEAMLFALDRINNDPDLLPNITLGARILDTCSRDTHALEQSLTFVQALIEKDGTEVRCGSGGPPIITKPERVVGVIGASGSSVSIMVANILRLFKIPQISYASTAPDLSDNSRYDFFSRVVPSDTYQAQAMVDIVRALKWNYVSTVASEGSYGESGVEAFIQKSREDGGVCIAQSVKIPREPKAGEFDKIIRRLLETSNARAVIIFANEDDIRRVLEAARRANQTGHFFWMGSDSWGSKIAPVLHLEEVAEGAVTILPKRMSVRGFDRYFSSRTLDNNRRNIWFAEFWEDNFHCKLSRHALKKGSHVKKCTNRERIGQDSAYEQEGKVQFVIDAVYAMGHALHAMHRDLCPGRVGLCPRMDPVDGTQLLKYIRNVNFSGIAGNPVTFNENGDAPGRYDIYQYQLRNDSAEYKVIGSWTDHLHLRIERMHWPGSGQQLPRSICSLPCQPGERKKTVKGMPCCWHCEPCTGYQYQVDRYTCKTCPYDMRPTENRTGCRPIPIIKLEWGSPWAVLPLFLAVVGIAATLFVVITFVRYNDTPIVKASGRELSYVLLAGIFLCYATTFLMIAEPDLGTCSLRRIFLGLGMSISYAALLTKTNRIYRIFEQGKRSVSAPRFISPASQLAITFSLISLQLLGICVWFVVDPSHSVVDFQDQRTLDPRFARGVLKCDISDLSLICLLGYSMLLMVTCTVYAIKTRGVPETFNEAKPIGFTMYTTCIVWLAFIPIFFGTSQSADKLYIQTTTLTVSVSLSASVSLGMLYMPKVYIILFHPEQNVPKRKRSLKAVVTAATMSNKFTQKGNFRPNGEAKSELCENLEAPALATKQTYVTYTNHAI

`O=C(Nc1ccccn1)C12CC1C(=NO)c1ccccc1O2` (centres unmarked) [VU0359516]: the EC50 at mGlu4 receptor [1] (PAM, read-out: EC50 (mGlu4 receptor PAM)) was 380 nM.

Consider `Cc1ccnc(Nc2nc(-c3cn[nH]c3)c(C)s2)n1` [ADX88178], for which the “reduction of DOI-induced HTR” value in the data set with DOI-induced HTR is listed as at most 30%.

Take `O=C(Nc1cc(Cl)cc(Cl)c1)[C@H]1CCCC[C@H]1C(=O)O` [VU0155041]: the “effect on forskolin-induced cAMP accumulation in mock cells” value in data set [2] was “no effects”. The EC50 on mGlu4 receptor [1] (reference ago-PAM, read-out: agonist activity at mGlu4 receptor, EC50) is 2500 nM.

On to `O=C(Nc1ccccc1)C12CC1C(=NO)c1ccccc1O2` (single isomer, unassigned; (-)) [(–)-PHCCC], for which the EC50 at mGlu4 receptor [1] (PAM, read-out: mGlu4 EC50) is […].

Turning to `Cc1cc(NC(=O)c2ccccn2)ccc1-c1noc(-c2ccccc2Cl)n1` [Compound 62, N-(4-(5-(2-chlorophenyl)-1,2,4-oxadiazol-3-yl)-3-methylphenyl)picolinamide], on mGlu4 receptor [3], the EC50 was found to be 308 nM, the Emax worked out at 135% and the “Fold shift of L-Glu dose-response curve” value is on record as 3.3 (0.34)^d. Further, at mGlu4 receptor [4], the “agonistic action at mGlu4 receptor” value was “lacked agonistic action”. Also, the “agonistic activity at mGlu7 receptor” value on mGlu7 receptor was “lacked agonistic action”. Further, the “agonistic activity at mGlu8 receptor” value at mGlu8 receptor is “lacked agonistic action”. Also, the “mutagenic activity (mini-AMES)” value in [5] is given as “no mutagenic potential”. The “effect on SIH response” value in the data set on Albino Swiss mice [6] is “significant anxiolytic- and antipsychotic-like properties; also recorded: significantly reduced SIH responses at all three doses; also recorded: at all doses significantly reduced the SIH response”. Besides, in the data set with Albino Swiss mice [7], the “effect on DOI-induced HTR” value is “significant anxiolytic- and antipsychotic-like properties; also recorded: at all doses significantly reduced; also recorded: Clear dose-response effects; also recorded: clear dose-dependent response and high potency; also recorded: comparable to that of clozapine”.

`O=C(Nc1ccc(-c2noc(-c3ccccc3)n2)c(Cl)c1)c1ccccn1` [Compound 49]: on mGlu4 receptor [3], the 50% effective concentration (EC50) was 352 nM, the Emax is 123% and the “Fold shift of L-Glu dose-response curve” value was 6.77 (0.53)^d. For the same compound, at mGlu7 receptor, the “agonistic activity at mGlu7 receptor” value is “direct agonistic activity”. Besides, the “mutagenic activity (mini-AMES)” value in data set [5] is “no mutagenic potential”. In the data set on Albino Swiss mice [6], the “effect on SIH response” value is reported as “not effective”. Moreover, the “effect on DOI-induced HTR” value in the data set on Albino Swiss mice [7] is on record as “not effective; also recorded: no influence”.

As for `FC(F)(F)c1nccc2cc(Nc3n[nH]c4ncccc34)ccc12` [Valiglurax], the concentration for a half-maximal effect (EC50) at mGlu4 receptor [1] (PAM, read-out: mGlu4 receptor PAM potency EC50) is 64.6 nM.

Consider `O/N=c1\cc(-c2cc3sccc3cn2)oc2ccc(CCCN3CCOCC3)cc12` [PXT002331], for which the EC50 on mGlu4 receptor [1] (PAM, read-out: mGlu4 PAM potency EC50) is 46 nM.
